US20090104598A1, “Dopamine D2 receptor gene variants” (CENTRE FOR ADDICTION AND MENTAL HEALTH, priority 2006, published 2009)

Columns and labels:
[1] = treatment refractory patients; Miller 1996; cited from earlier work
[2] = clinical; details: human, in vivo
Source text: Thus, % Score Change=(6 Month Score−Baseline Score)/(Baseline Score).

CN1CCN(C2=Nc3cc(Cl)ccc3Nc3ccccc32)CC1 [clozapine]
blood clozapine threshold level that increases likelihood of clinical response [1]: 350 ng/mL
concentration at 6 month [2]: 399 ng/mL
